Test results taken from PubChem BioAssay (NCI).
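Growth conditions: 96-well plates. Treatment: test compound, 48 hours, 5 concentrations. Analysis: linear interpolation between bracketing concentrations; unreached endpoints set to highest concentration. Abbreviation: GI50, concentration required for 50% inhibition of growth. TGI denotes the concentration required for complete inhibition of growth.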

Key:
Test in all cases: inhibition of tumour cell growth, NCI panel, 48 h
[1] = test system: PC-3 prostate
[2] = test system: HL-60(TB) leukemia
[3] = test system: HOP-62 NSCLC
[4] = test system: CAKI-1 renal
[5] = test system: NCI/ADR-RES ovarian
[6] = test system: EKVX NSCLC
[7] = test system: MALME-3M melanoma
[8] = test system: DU-145 prostate
[9] = test system: LOX IMVI melanoma
[10] = test system: MDA-MB-435
[11] = test system: HCT-116 colon
[12] = test system: HOP-92 NSCLC
[13] = test system: SF-539 CNS
[14] = test system: HS 578T breast
[15] = test system: U251 CNS
[16] = test system: OVCAR-4 ovarian
[17] = test system: UACC-62 melanoma
[18] = test system: HCT-15 colon
[19] = test system: 786-0 renal
[20] = test system: KM12 colon
[21] = test system: SK-MEL-5 melanoma
[22] = test system: SK-OV-3 ovarian
[23] = test system: NCI-H23 lung
[24] = test system: OVCAR-3 ovarian
[25] = test system: HT29 colon
[26] = test system: K-562 leukemia
[27] = test system: UACC-257 melanoma
[28] = test system: MOLT-4 leukemia
[29] = test system: SNB-19 CNS
[30] = test system: BT-549 breast
[31] = test system: CCRF-CEM leukemia
[32] = test system: SR leukemia
[33] = test system: M14 melanoma
[34] = test system: NCI-H460 lung
[35] = test system: TK-10 renal
[36] = test system: NCI-H226 lung
[37] = test system: SK-MEL-2 melanoma
[38] = test system: UO-31 renal
[39] = test system: SNB-75 CNS
[40] = test system: T-47D breast
[41] = test system: RPMI-8226 leukemia
[42] = test system: NCI-H522 lung
[43] = test system: IGROV1 ovarian
[44] = test system: HCC-2998 colon
[45] = test system: A549 NSCLC
[46] = test system: OVCAR-5 ovarian
[47] = test system: SF-295 CNS
[48] = test system: SF-268 CNS
[49] = test system: MDA-MB-231 breast
[50] = test system: SN12C renal
[51] = test system: A498 renal
[52] = test system: OVCAR-8 ovarian
[53] = test system: COLO 205 colon
[54] = test system: ACHN renal
[55] = test system: MCF7 breast
[56] = test system: SW-620 colon
[57] = test system: RXF 393 renal
[58] = test system: SK-MEL-28 melanoma

`C=CCN(/C=C1/C(=O)O[C@H](COC)[C@@]2(C)C1=C(O)C(=O)C1=C2[C@H](OC(C)=O)C[C@]2(C)C(=O)CC[C@@H]12)CC=C` gave a GI50 [1] of 0.177 µM, a TGI [1] of over 10 µM and a GI50 [2] of 0.286 µM. The TGI [2] was over 10 µM, the GI50 [3] was 2.04 µM and the TGI [3] was over 10 µM. For the same compound, the GI50 [4] was 0.357 µM, the TGI [4] was over 10 µM and the GI50 [5] was over 4.75 µM. The TGI [5] was over 10 µM, the GI50 [6] was 0.828 µM and the TGI [6] was over 10 µM. It also gave a GI50 [7] of 0.784 µM, a TGI [7] of over 10 µM and a GI50 [8] of 2.43 µM. The TGI [8] was over 10 µM, the GI50 [9] was 1.65 µM and the TGI [9] was over 10 µM. The GI50 [10] was 2.68 µM, the TGI [10] was over 10 µM and the GI50 [11] was 1.17 µM. For the same compound, the TGI [11] was over 10 µM, the GI50 [12] was 0.0783 µM and the TGI [12] was 1.57 µM. For the same compound, the GI50 [13] was 0.692 µM, the TGI [13] was over 5.24 µM and the GI50 [14] was 0.128 µM. For the same compound, the TGI [14] was 1.94 µM, the GI50 [15] was 2.12 µM and the TGI [15] was over 10 µM. The GI50 [16] was 2.72 µM, the TGI [16] was over 10 µM and the GI50 [17] was 0.144 µM. The TGI [17] was 4.45 µM, the GI50 [18] was 1.19 µM and the TGI [18] was over 10 µM. The GI50 [19] was 0.379 µM, the TGI [19] was over 10 µM and the GI50 [20] was 2.52 µM. For the same compound, the TGI [20] was over 10 µM, the GI50 [21] was 3.16 µM and the TGI [21] was over 10 µM. For the same compound, the GI50 [22] was 0.331 µM, the TGI [22] was over 8.47 µM and the GI50 [23] was over 5.65 µM. It also gave a TGI [23] of over 10 µM, a GI50 [24] of 0.562 µM and a TGI [24] of over 10 µM. For the same compound, the GI50 [25] was 0.422 µM, the TGI [25] was over 10 µM and the GI50 [26] was over 8.1 µM. The TGI [26] was over 10 µM, the GI50 [27] was 0.72 µM and the TGI [27] was over 9.25 µM. The GI50 [28] was 1.05 µM, the TGI [28] was over 10 µM and the GI50 [29] was 3.45 µM. For the same compound, the TGI [29] was over 10 µM, the GI50 [30] was 0.141 µM and the TGI [30] was 4.12 µM. It also gave a GI50 [31] of 0.709 µM, a TGI [31] of over 6.51 µM and a GI50 [32] of 0.708 µM. The TGI [32] was over 10 µM, the GI50 [33] was 2.95 µM and the TGI [33] was over 10 µM. It also gave a GI50 [34] of 0.585 µM, a TGI [34] of over 10 µM and a GI50 [35] of 0.193 µM. The TGI [35] was over 7.79 µM, the GI50 [36] was 2.57 µM and the TGI [36] was over 10 µM. The GI50 [37] was 1.22 µM, the TGI [37] was over 6.23 µM and the GI50 [38] was 0.148 µM. The TGI [38] was over 10 µM, the GI50 [39] was 0.0364 µM and the TGI [39] was 0.816 µM. For the same compound, the GI50 [40] was 0.0992 µM, the TGI [40] was over 3.78 µM and the GI50 [41] was 2 µM. The TGI [41] was over 10 µM, the GI50 [42] was 1.41 µM and the TGI [42] was over 10 µM. It also gave a GI50 [43] of 0.135 µM, a TGI [43] of 6.81 µM and a GI50 [44] of 0.385 µM. It also gave a TGI [44] of over 7.08 µM, a GI50 [45] of 0.382 µM and a TGI [45] of over 8.15 µM. For the same compound, the GI50 [46] was 1.08 µM, the TGI [46] was over 10 µM and the GI50 [47] was 0.573 µM. It also gave a TGI [47] of over 10 µM, a GI50 [48] of 1.71 µM and a TGI [48] of over 10 µM. For the same compound, the GI50 [49] was 6.23 µM, the TGI [49] was over 10 µM and the GI50 [50] was 1.11 µM. It also gave a TGI [50] of over 10 µM, a GI50 [51] of 0.0205 µM and a TGI [51] of 0.103 µM. For the same compound, the GI50 [52] was 2.87 µM, the TGI [52] was over 10 µM and the GI50 [53] was 2.17 µM. For the same compound, the TGI [53] was over 10 µM, the GI50 [54] was 1.53 µM and the TGI [54] was over 10 µM. It also gave a GI50 [55] of 0.435 µM, a TGI [55] of over 10 µM and a GI50 [56] of 2.17 µM. The TGI [56] was over 10 µM, the GI50 [57] was 0.112 µM and the TGI [57] was 1.56 µM. The GI50 [58] was 1.1 µM and the TGI [58] was over 10 µM.
